# Laboratory results from US20240383904A1, “HETEROCYCLIC COMPOUNDS” (Hoffmann-La Roche Inc., priority 2021, published 2024).
# Target: T1, MAGL (Homo sapiens, UniProt Q99685)
# T1 sequence (Q99685 1-303): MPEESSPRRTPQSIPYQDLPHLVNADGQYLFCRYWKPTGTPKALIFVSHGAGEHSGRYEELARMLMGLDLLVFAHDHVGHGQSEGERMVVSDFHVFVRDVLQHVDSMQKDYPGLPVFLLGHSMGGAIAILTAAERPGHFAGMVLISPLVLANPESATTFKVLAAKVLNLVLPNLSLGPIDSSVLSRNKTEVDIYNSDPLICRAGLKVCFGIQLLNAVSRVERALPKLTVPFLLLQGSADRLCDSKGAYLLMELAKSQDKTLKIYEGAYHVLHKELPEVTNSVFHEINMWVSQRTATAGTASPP
# Experiment: 2-AG assay: MAGL inhibitory activity by hydrolysis of 2-arachidonoylglycerol to arachidonic acid, followed by mass spectrometry
# Assay type: biochemical
# Settings: 15 min preincubation, 30 min reaction at RT, 8 μM 2-arachidonoylglycerol
row,SMILES,IC50 [nM]
1,"N#Cc1cc(C(F)(F)F)ncc1O[C@H]1CCC2(C1)CN(C(=O)N1CC3(COC(=O)N3)C1)C2 [Example 209, 5-[[(6S)-2-(6-oxo-7-oxa-2,5-diazaspiro[3.4]octane-2-carbonyl)-2-azaspiro[3.4]octan-6-yl]oxy]-2-(trifluoromethyl)pyridine-4-carbonitrile]",6.28
2,"N#Cc1cc(C(F)(F)F)ncc1CC1CCC2(C1)CN(C(=O)N1CC3(COC(=O)N3)C1)C2 (centres unmarked) [Example 210, 5-[[2-(6-oxo-7-oxa-2,5-diazaspiro[3.4]octane-2-carbonyl)-2-azaspiro[3.4]octan-6-yl]methyl]-2-(trifluoromethyl)pyridine-4-carbonitrile]",0.84
3,"N#Cc1cc(C(F)(F)F)ncc1C[C@H]1CCC2(C1)CN(C(=O)N1CC3(COC(=O)N3)C1)C2 [Example 212, 5-[[(6S)-2-(6-oxo-7-oxa-2,5-diazaspiro[3.4]octane-2-carbonyl)-2-azaspiro[3.4]octan-6-yl]methyl]-2-(trifluoromethyl)pyridine-4-carbonitrile]",0.46
4,"N#Cc1cc(C(F)(F)F)ncc1O[C@H]1CCC2(C1)CN(C(=O)N1CC3(COCC(=O)N3)C1)C2 [Example 214, 5-[[(6S)-2-(6-oxo-8-oxa-2,5-diazaspiro[3.5]nonane-2-carbonyl)-2-azaspiro[3.4]octan-6-yl]oxy]-2-(trifluoromethyl)pyridine-4-carbonitrile]",386
5,"O=C1CCC2(CN(C(=O)N3CC4(CC(Cc5ccc(S(=O)(=O)C6CC6)cc5)C4)C3)C2)N1 [Example 215, 2-[6-[(4-cyclopropylsulfonylphe-nyl)methyl]-2-azaspiro[3.3]heptane-2-carbonyl]-2,5-diazaspiro[3.4]octan-6-one]",3.2
6,"O=C1CCC2(CN(C(=O)N3CC4(CC(Cc5cnn(C(F)(F)F)c5)C4)C3)C2)N1 [Example 216, 2-[6-[[1-(trifluoromethyl)pyrazol-4-yl]methyl]-2-azaspiro[3.3]heptane-2-carbonyl]-2,5-diazaspiro[3.4]octan-6-one]",17.6
7,"N#Cc1cc(CC2CC3(C2)CN(C(=O)N2CC4(CCC(=O)N4)C2)C3)cc(C(F)(F)F)c1 [Example 217, 3-[[2-(6-oxo-2,5-diazaspiro[3.4]octane-2-carbonyl)-2-azaspiro[3.3]heptan-6-yl]methyl]-5-(trifluoromethyl)benzoni-trile]",0.78
8,"O=C1CCC2(CN(C(=O)N3CC4(CCN(Cc5ccc(S(=O)(=O)C(F)(F)F)cc5)C4)C3)C2)N1 [Example 218, 2-[7-[[4-(trifluoromethylsulfonyl)phenyl]methyl]-2,7-diazaspiro[3.4]octane-2-carbonyl]-2,5-diazaspiro[3.4]octan-6-one]",87.3
9,"O=C1CCC2(CN(C(=O)N3CC4(CC[C@H](Cc5ccc(S(=O)(=O)C(F)(F)F)cc5)C4)C3)C2)N1 [Example 221, 2-[(6R)-6-[[4-(trifluoromethylsulfonyl)phenyl]methyl]-2-azaspiro[3.4]octane-2-carbonyl]-2,5-diazaspiro[3.4]octan-6-one]",1.31
10,"O=C1CCC2(CN(C(=O)N3CC4(CC[C@@H](Cc5ccc(S(=O)(=O)C(F)(F)F)cc5)C4)C3)C2)N1 [Example 222, 2-[(6S)-6-[[4-(trifluoromethylsulfonyl)phenyl]methyl]-2-azaspiro[3.4]octane-2-carbonyl]-2,5-diazaspiro[3.4]octan-6-one]",2.27
11,"O=C1CCC2(CN(C(=O)N3CC4(CC[C@H](Cc5cccc(S(=O)(=O)C(F)(F)F)c5)C4)C3)C2)N1 [Example 223, 2-[(6R)-6-[[3-(trifluoromethylsulfonyl)phenyl]methyl]-2-azaspiro[3.4]octane-2-carbonyl]-2,5-diazaspiro[3.4]octan-6-one]",0.96
12,"O=C1CCC2(CN(C(=O)N3CC4(CC[C@@H](Cc5cccc(S(=O)(=O)C(F)(F)F)c5)C4)C3)C2)N1 [Example 224, 2-[(6S)-6-(3-triflylbenzyl)-2-azaspiro[3.4]octane-2-carbonyl]-2,5-diazaspiro[3.4]octan-6-one]",0.23
13,"O=C1CCC2(CN(C(=O)N3CC4(CC(Cn5ccc(C(F)(F)F)n5)C4)C3)C2)N1 [Example 225, 2-[6-[[3-(trifluoromethyl)pyrazol-1-yl]methyl]-2-azaspiro[3.3]heptane-2-carbonyl]-2,5-diazaspiro[3.4]octan-6-one]",17
14,"O=C1COCC2(CN(C(=O)N3CC4(CCC(Cc5cnc(C(F)(F)F)cn5)CC4)C3)C2)N1 [Example 226, 2-[7-[[5-(trifluoromethyl)pyrazin-2-yl]methyl]-2-azaspiro[3.5]nonane-2-carbonyl]-8-oxa-2,5-diazaspiro[3.5]nonan-6-one]",45.9
15,"O=C1COCC2(CN(C(=O)N3CC4(CC(n5cnc(C6CC6)n5)C4)C3)C2)N1 [Example 227, 2-[6-(3-cyclopropyl-1,2,4-triazol-1-yl)-2-azaspiro[3.3]heptane-2-carbonyl]-8-oxa-2,5-diazaspiro[3.5]nonan-6-one]",1800

# Continued by falling IC50, values first:
row,IC50 [nM],SMILES
1,414,"O=C1NC2(CO1)CN(C(=O)N1CC3(C1)CN(c1ncc(C(F)(F)F)cn1)C3)C2 [Example 207, 2-[6-[5-(trifluoromethyl)pyrimi-din-2-yl]-2,6-diazaspiro[3.3]heptane-2-carbonyl]-7-oxa-2,5-diazaspiro[3.4]octan-6-one]"
2,278,"O=C1NC2(CO1)CN(C(=O)N1CC3(C1)CN(c1cnc(C(F)(F)F)cn1)C3)C2 [Example 206, 2-[6-[5-(trifluoromethyl)pyrazin-2-yl]-2,6-diazaspiro[3.3]heptane-2-carbonyl]-7-oxa-2,5-diazaspiro[3.4]octan-6-one]"
3,67.1,"O=C1COCC2(CN(C(=O)N3CC4(CC(NS(=O)(=O)c5cccc(C(F)(F)F)c5)C4)C3)C2)N1 [Example 208, N-[2-(6-oxo-8-oxa-2,5-diazaspiro[3.5]nonane-2-carbonyl)-2-azaspiro[3.3]heptan-6-yl]-3-(trifluoromethyl)benzene-sulfonamide]"
4,18.4,O=C1COCC2(CN(C(=O)N3CC4(CC(c5ccc(C(F)(F)F)cc5F)C4)C3)C2)N1 [Example 228]
5,4.18,"O=C1CCC2(CN(C(=O)N3CC4(CC(Cc5cc(C(F)(F)F)n[nH]5)C4)C3)C2)N1 [Example 220, 2-[6-[[3-(trifluoromethyl)-1H-pyrazol-5-yl]methyl]-2-azaspiro[3.3]heptane-2-carbonyl]-2,5-diazaspiro[3.4]octan-6-one]"
6,0.55,"N#Cc1cc(C(F)(F)F)ncc1C[C@@H]1CCC2(C1)CN(C(=O)N1CC3(COC(=O)N3)C1)C2 [Example 213, 5-[[(6R)-2-(6-oxo-7-oxa-2,5-diazaspiro[3.4]octane-2-carbonyl)-2-azaspiro[3.4]octan-6-yl]methyl]-2-(trifluoromethyl)pyridine-4-carbonitrile]"
7,0.43,"N#Cc1ccc(CC2CC3(C2)CN(C(=O)N2CC4(CCC(=O)N4)C2)C3)cc1C(F)(F)F [Example 219, 4-[[2-(6-oxo-2,5-diazaspiro[3.4]octane-2-carbonyl)-2-azaspiro[3.3]heptan-6-yl]methyl]-2-(trifluoromethyl)benzoni-trile]"
8,0.39,"N#Cc1cc(C(F)(F)F)ncc1CC1CC2(C1)CN(C(=O)N1CC3(COC(=O)N3)C1)C2 [Example 211, 5-[[2-(6-oxo-7-oxa-2,5-diazaspiro[3.4]octane-2-carbonyl)-2-azaspiro[3.3]heptan-6-yl]methyl]-2-(trifluoromethyl)pyridine-4-carbonitrile]"
